Reference: patent publication US20130323314A1, “Novel Nanoparticles of Lactoferrin Useful for Preparing a Pharmaceutical Composition Facilitating Easy Delivery of the Drug and a Process for Preparing the Same” (UNIVERSITY OF HYDERABAD, priority 2011, published 2013)
Counter-ions that a name gives are not always drawn. Like-named read-outs stand apart in the source and are kept apart here. Marks after values point to notes of the source that are not given here.

Columns and labels:
in vivo [1] = conditions: rat, po
heart = conditions: rat, in vivo
[2] = Pharmacokinetics and tissue distribution after subcutaneous administration; conditions: rat
[3] = Pharmacokinetics and tissue distribution after intravenous administration; conditions: rat
in vivo [4] = conditions: rat, iv
[5] = Pharmacokinetics and tissue distribution after oral administration; conditions: rat
in vivo [6] = conditions: rat, sc
in vivo [7] = conditions: rat, im
[8] = Pharmacokinetics and tissue distribution after intramuscular administration; conditions: rat

`COc1cccc2c1C(=O)c1c(O)c3c(c(O)c1C2=O)C[C@@](O)(C(=O)CO)C[C@@H]3O[C@H]1C[C@H](N)[C@H](O)[C@H](C)O1` [Doxo, Doxorubicin hydrochloride] showed a Cmax (in vivo [1]; heart) of 17200 ng/g, an MRT last (in vivo [1]; in vivo) of 8.21 h and a Tmax (in vivo [1]; in vivo) of 8 h. The Cmax (in vivo [1]; kidney) was 32900 ng/g, the Cmax (in vivo [1]; liver) was 17400 ng/g and the Cmax (in vivo [1]; spleen) was 11100 ng/g. The “toxicity to heart (safety analysis)” value (heart) was “cardiotoxic”, the “toxicity to heart (safety analysis)” value (heart; iv) was “cardiotoxic” and the “toxicity to heart (safety analysis)” value (heart; po) was “cardiotoxic”. The “toxicity to heart (safety analysis)” value (heart; sc) was “cardiotoxic”, the AUC ([2]; Blood) was 167.94 (h) * (μg/μL) and the AUMC ([2]; Blood) was 1745.8 (h)^2 * (μg/μL). The Cmax ([2]; Blood) was 12855 µg/mL, the MRT last ([2]; Blood) was 10.394 h and the t½ ([2]; Blood) was 7.0001 h. For the same compound, the AUC ([2]; Heart) was 467.46 (h) * (μg/μL), the AUMC ([2]; Heart) was 13515 (h)^2 * (μg/μL) and the Cmax ([2]; Heart) was 18198 µg/mL. The MRT last ([2]; Heart) was 28.912 h, the t½ ([2]; Heart) was 18.662 h and the AUC ([2]; Kidney) was 2249.1 (h) * (μg/g). The AUMC ([2]; Kidney) was 19205 (h)^2 * (μg/g), the Cmax ([2]; Kidney) was 200.93 h and the MRT last ([2]; Kidney) was 8.5383 h. The t½ ([2]; Kidney) was 3.888 h, the AUC ([2]; Liver) was 1025 (h) * (μg/μL) and the AUMC ([2]; Liver) was 10140 (h)^2 * (μg/μL). It also gave a Cmax ([2]; Liver) of 71123 µg/mL, an MRT last ([2]; Liver) of 9.8923 h and a t½ ([2]; Liver) of 5.9991 h. For the same compound, the AUC ([2]; Spleen) was 553.3 (h) * (μg/g), the AUMC ([2]; Spleen) was 7927.3 (h)^2 * (μg/g) and the Cmax ([2]; Spleen) was 34.747 h. It also gave an MRT last ([2]; Spleen) of 14.327 h, a t½ ([2]; Spleen) of 5.3088 h and a Cmax ([3]; Blood) of 22286.7 µg/mL. For the same compound, the t½ ([3]; Heart) was 4.444 h, the t½ ([3]; Kidney) was 2.63 h and the t½ ([3]; Liver) was 3.432 h. It also gave a t½ ([3]; Spleen) of 3.833 h, a Tmax (in vivo [4]) of 8 h and a half-life (in vivo [4]) of 2.74 h. For the same compound, the AUC ([5]; Blood) was 105.24 (h) * (μg/μL), the AUMC ([5]; Blood) was 1227.63 (h)^2 * (μg/μL) and the Cmax ([5]; Blood) was 8250 µg/mL. For the same compound, the t½ ([5]; Blood) was 3.741 h, the AUC ([5]; Heart) was 248.048 (h) * (μg/g) and the AUMC ([5]; Heart) was 3211.86 (h)^2 * (μg/g). For the same compound, the MRT last ([5]; Heart) was 8.9708 h, the Tmax ([5]; Heart) was 16 h and the t½ ([5]; Heart) was 7.533 h. For the same compound, the AUC ([5]; Kidney) was 362.639 (h) * (μg/g), the AUMC ([5]; Kidney) was 4321.31 (h)^2 * (μg/g) and the t½ ([5]; Kidney) was 6.47 h. For the same compound, the AUC ([5]; Liver) was 207.816 (h) * (μg/g), the AUMC ([5]; Liver) was 2379.51 (h)^2 * (μg/g) and the MRT last ([5]; Liver) was 7.428 h. The t½ ([5]; Liver) was 6.099 h, the AUC ([5]; Spleen) was 190.928 (h) * (μg/g) and the AUMC ([5]; Spleen) was 2616.55 (h)^2 * (μg/g). The MRT last ([5]; Spleen) was 9.2978 h, the t½ ([5]; Spleen) was 5.894 h and the Tmax (in vivo [6]) was 8 h. For the same compound, the Tmax (in vivo [7]) was 8 h, the AUC ([8]; Blood) was 185.4 (h) * (μg/μL) and the AUMC ([8]; Blood) was 1581.8 (h)^2 * (μg/μL). The Cmax ([8]; Blood) was 11032 µg/mL, the MRT last ([8]; Blood) was 8.5317 h and the t½ ([8]; Blood) was 4.466 h. The AUC ([8]; Heart) was 510.54 (h) * (μg/g), the AUMC ([8]; Heart) was 12046 (h)^2 * (μg/g) and the MRT last ([8]; Heart) was 23.595 h. The t½ ([8]; Heart) was 13.27 h, the AUC ([8]; Kidney) was 2580.5 (h) * (μg/g) and the AUMC ([8]; Kidney) was 26548 (h)^2 * (μg/g). The MRT last ([8]; Kidney) was 10.288 h, the t½ ([8]; Kidney) was 2.0438 h and the AUC ([8]; Liver) was 751.01 (h) * (μg/g). For the same compound, the AUMC ([8]; Liver) was 10278 (h)^2 * (μg/g), the MRT last ([8]; Liver) was 13.685 h and the t½ ([8]; Liver) was 4.9231 h. The AUC ([8]; Spleen) was 899.9 (h) * (μg/g), the AUMC ([8]; Spleen) was 19234 (h)^2 * (μg/g) and the MRT last ([8]; Spleen) was 21.374 h. The t½ ([8]; Spleen) was 13.602 h.
